The values below are quoted from earlier work in PMC2912446 (ACS chemical biology, 2010).

pIC50: −log10 of the molar value.

The data set has as its system GPR30. Conditions: read-out: GPR30 binding affinity; parent small molecules.

With `Brc1cc2c(cc1[C@@H]1Nc3ccccc3[C@@H]3C=CC[C@@H]31)OCO2` [G15], the pIC50 is […].
`CC(=O)c1ccc2c(c1)[C@@H]1C=CC[C@@H]1[C@H](c1cc3c(cc1Br)OCO3)N2` [G-1]: the pIC50 is roughly 7.96.
